Here are results for 55 compounds from ChEMBL document CHEMBL4043187, “Synthesis and biological evaluation of N9-cis-cyclobutylpurine derivatives for use as cyclin-dependent kinase (CDK) inhibitors” (Bioorg Med Chem Lett, 2017).

For orientation: inhibition means the change of the read-out against control, counted positive when it falls. A word on the IC50: it is the concentration that gives 50% inhibition.

Some results are limits rather than exact numbers.

What all share (type): protein-complex assay
Assay [1] concerns the target CDK2/Cyclin A2 (Homo sapiens) (UniProt P24941+P20248). As to the kind of experiment: Inhibition of CDK2/CyclinA (unknown origin) using ULingt-4E-BP as substrate at 25 nM after 1 hr in presence of ATP by fluorescence assay relative to control.
Assay [2] has as its target Cyclin-dependent kinase 5/CDK5 activator 1 (Homo sapiens) (UniProt Q00535+Q15078). Put plainly: Inhibition of CDK5/p35 (unknown origin) using ULingt-4E-BP as substrate at 25 nM after 1 hr in presence of ATP by fluorescence assay relative to control.
Assay [3] deals with CDK2/Cyclin A2 (Homo sapiens, UniProt P24941). As to the kind of experiment: Inhibition of CDK2/CyclinA (unknown origin) using ULingt-4E-BP as substrate after 1 hr in presence of ATP by fluorescence assay.
Assay [4] deals with Cyclin-dependent kinase 5/CDK5 activator 1 (Homo sapiens, UniProt Q00535). Put plainly: Inhibition of CDK5/p35 (unknown origin) using ULingt-4E-BP as substrate after 1 hr in presence of ATP by fluorescence assay.
Sequence of Cyclin-dependent kinase 5/CDK5 activator 1 (Q00535 whole entry): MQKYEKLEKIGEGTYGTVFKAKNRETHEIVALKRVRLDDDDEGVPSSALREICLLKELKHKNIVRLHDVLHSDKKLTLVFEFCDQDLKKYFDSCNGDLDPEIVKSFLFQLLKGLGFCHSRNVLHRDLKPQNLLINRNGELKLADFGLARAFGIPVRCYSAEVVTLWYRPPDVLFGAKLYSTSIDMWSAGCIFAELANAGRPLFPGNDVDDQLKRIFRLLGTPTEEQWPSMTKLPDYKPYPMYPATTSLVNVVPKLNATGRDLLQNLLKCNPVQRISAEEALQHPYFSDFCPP
Sequence of Cyclin-dependent kinase 5/CDK5 activator 1 (Q15078 whole entry, further chain): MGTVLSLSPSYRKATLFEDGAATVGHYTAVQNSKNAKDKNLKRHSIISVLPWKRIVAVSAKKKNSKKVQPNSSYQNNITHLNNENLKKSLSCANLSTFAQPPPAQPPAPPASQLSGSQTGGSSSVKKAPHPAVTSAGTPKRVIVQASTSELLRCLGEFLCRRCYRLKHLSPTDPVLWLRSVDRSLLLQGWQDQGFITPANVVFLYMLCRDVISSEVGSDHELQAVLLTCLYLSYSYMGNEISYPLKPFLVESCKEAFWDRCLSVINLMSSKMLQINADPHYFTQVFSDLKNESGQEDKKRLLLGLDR

Sequence of Cyclin-dependent kinase 5/CDK5 activator 1 (Homo sapiens) (Q00535 whole entry): as the sequence (Q00535 whole entry) above
Sequence of Cyclin-dependent kinase 5/CDK5 activator 1 (Homo sapiens) (Q15078 99-307 partner limits assumed): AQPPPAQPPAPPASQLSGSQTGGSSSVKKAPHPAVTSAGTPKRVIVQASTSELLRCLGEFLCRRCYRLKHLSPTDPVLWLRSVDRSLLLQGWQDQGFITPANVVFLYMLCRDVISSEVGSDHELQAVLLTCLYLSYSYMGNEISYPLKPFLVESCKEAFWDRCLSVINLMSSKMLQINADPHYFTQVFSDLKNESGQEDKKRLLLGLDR

Consider `O=C(N[C@H]1C[C@@H](n2cnc3c(NCc4cccnc4)ncnc32)C1)C1CCOCC1`, for which the inhibition in assay [1] and in assay [2] was less than 50% each time.

As to `Cc1cccc(C(=O)N[C@H]2C[C@@H](n3cnc4c(NCc5ccc(N(C)C)cc5)ncnc43)C2)n1`, the inhibition in assay [1] was less than 50%; in assay [2], 53%.

Regarding `Cc1cccc(C(=O)N[C@H]2C[C@@H](n3cnc4c(NCC5CCN(C(=O)OC(C)(C)C)CC5)ncnc43)C2)n1`, the 50% inhibitory concentration (IC50) in assay [3] turned out to be 376 nM; in assay [4], 90 nM.

Consider `Cc1cccc(C(=O)N[C@H]2C[C@@H](n3cnc4c(NCc5ccccc5C)ncnc43)C2)n1`, for which the inhibition in assay [1] and in assay [2] was less than 50% in each case.

Take `COc1ccc(Nc2ncnc3c2ncn3[C@H]2C[C@@H](NC(=O)c3cccc(C)n3)C2)cc1`: the results for the inhibition in assay [1] and in assay [2] were less than 50% and 63%, respectively.

`Cc1cccc(C(=O)N[C@H]2C[C@@H](n3cnc4c(NCc5ccc(Oc6ccccc6)cc5)ncnc43)C2)n1`: the inhibition in assay [1] and in assay [2] was less than 50% in each case.

For `Cc1cccc(C(=O)N[C@H]2C[C@@H](n3cnc4c(Nc5cccc(F)c5)ncnc43)C2)n1`, the inhibition in assay [1] and in assay [2] was less than 50% in each case.

With `COc1ccccc1CNc1ncnc2c1ncn2[C@H]1C[C@@H](NC(=O)c2cccc(C)n2)C1`, the inhibition in assay [1] and in assay [2] was less than 50% each time.

With `O=C(N[C@H]1C[C@@H](n2cnc3c(NCc4cccnc4)ncnc32)C1)c1ccncc1`, the inhibition in assay [1] and in assay [2] was less than 50% throughout.

On to `COc1ccc(CNc2ncnc3c2ncn3[C@H]2C[C@@H](NC(=O)c3cccc(C)n3)C2)cc1`, for which the values for the inhibition in assay [1] and in assay [2] were 57% and 81%, respectively.

`Cc1cccc(C(=O)N[C@H]2C[C@@H](n3cnc4c(NCc5cccnc5)ncnc43)C2)n1`: the values for the IC50 in assay [3] and in assay [4] were 16 nM and 10 nM, respectively.

As for `Cc1cccc(C(=O)N[C@H]2C[C@@H](n3cnc4c(NC5CCN(C(=O)OC(C)(C)C)CC5)ncnc43)C2)n1`, the IC50 in assay [3] was found to be 95 nM; in assay [4], 66 nM.

With `COc1ccc(C(=O)N[C@H]2C[C@@H](n3cnc4c(NCc5cccnc5)ncnc43)C2)cc1`, the inhibition in assay [1] and in assay [2] was less than 50% each time.

Take `Cc1cccc(C(=O)N[C@H]2C[C@@H](n3cnc4c(NC5CCNC5)ncnc43)C2)n1` (stereo partly specified): the IC50 in assay [4] is greater than 1000 nM.

For `Cc1cccc(C(=O)N[C@H]2C[C@@H](n3cnc4c(NCc5ccc(C#N)cc5)ncnc43)C2)n1`, the inhibition in assay [1] and in assay [2] was less than 50% throughout.

For the compound `Cc1cccc(C(=O)N[C@H]2C[C@@H](n3cnc4c(NCc5ccncc5)ncnc43)C2)n1`, the inhibition in assay [1] and in assay [2] was less than 50% in each case.

Regarding `Cc1cccc(C(=O)N[C@H]2C[C@@H](n3cnc4c(NC5CCN(S(C)(=O)=O)CC5)ncnc43)C2)n1`, the inhibition in assay [1] was determined as 62%; in assay [2], 48%.

`Cc1cccc(C(=O)N[C@H]2C[C@@H](n3cnc4c(NCc5ccc(F)c(F)c5)ncnc43)C2)n1`: the IC50 in assay [3] worked out at 29 nM; in assay [4] it was 13 nM.

Take `CC(=O)N[C@H]1CC[C@H](Nc2ncnc3c2ncn3[C@H]2C[C@@H](NC(=O)c3cccc(C)n3)C2)CC1`: the IC50 in assay [3] turned out to be 160 nM; in assay [4] it was 30 nM.

On to `O=C(N[C@H]1C[C@@H](n2cnc3c(NCc4cccnc4)ncnc32)C1)c1cccc(C(F)(F)F)n1`, for which the 50% inhibitory concentration (IC50) was 14 nM in assay [3] and 23 nM in assay [4].

Turning to `Cc1cccc(C(=O)N[C@H]2C[C@@H](n3cnc4c(NCc5ccccn5)ncnc43)C2)n1`, the inhibition amounted to 49% in assay [1] and 54% in assay [2].

As for `Cc1cccc(C(=O)N[C@H]2C[C@@H](n3cnc4c(N[C@H]5CC[C@H](O)CC5)ncnc43)C2)n1`, in assay [4], the half-inhibitory concentration (IC50) was greater than 500 nM.

On to `O=C(N[C@H]1C[C@@H](n2cnc3c(NCc4cccnc4)ncnc32)C1)c1cccnc1`, for which the inhibition in assay [1] and in assay [2] was less than 50% in each case.

As to `O=C(CC1CCCCC1)N[C@H]1C[C@@H](n2cnc3c(NCc4cccnc4)ncnc32)C1`, the inhibition in assay [1] and in assay [2] was less than 50% each time.

Regarding `O=C(N[C@H]1C[C@@H](n2cnc3c(NCc4cccnc4)ncnc32)C1)c1cnccn1`, the inhibition in assay [1] and in assay [2] was less than 50% in each case.

For `COc1ccc(Nc2ncnc3c2ncn3[C@H]2C[C@@H](NC(=O)c3cccc(C)n3)C2)cc1OC`, the values for the IC50 in assay [3] and in assay [4] were 54 nM and 94 nM, respectively.

In the case of `CC(=O)N1CCC(Nc2ncnc3c2ncn3[C@H]2C[C@@H](NC(=O)c3cccc(C)n3)C2)CC1`, the concentration for half-maximal inhibition (IC50) was 474 nM in assay [3] and 179 nM in assay [4].

As for `Cc1cccc(C(=O)N[C@H]2C[C@@H](n3cnc4c(NCc5ccc(Cl)c(Cl)c5)ncnc43)C2)n1`, the half-maximal inhibitory concentration (IC50) in assay [3] stood at 77 nM; in assay [4], 34 nM.

In the case of `O=C(N[C@H]1C[C@@H](n2cnc3c(NCc4cccnc4)ncnc32)C1)c1c(Cl)cccc1Cl`, the inhibition in assay [1] was 82%; in assay [2] it was 64%.

For `Cc1cccc(C(=O)N[C@H]2C[C@@H](n3cnc4c(Nc5ccncc5)ncnc43)C2)n1`, the IC50 in assay [3] and in assay [4] was greater than 1000 nM each time.

For the compound `Cc1cccc(C(=O)N[C@H]2C[C@@H](n3cnc4c(NC5CCNCC5)ncnc43)C2)n1`, the values for the 50% inhibitory concentration (IC50) in assay [3] and in assay [4] were 379 nM and 162 nM, respectively.

In the case of `Cc1cccc(C(=O)N[C@H]2C[C@@H](n3cnc4c(NCc5ccccc5F)ncnc43)C2)n1`, the inhibition in assay [1] was less than 50%; in assay [2], 55%.

Regarding `Cc1cccc(C(=O)N[C@H]2C[C@@H](n3cnc4c(NCc5cccc(F)c5)ncnc43)C2)n1`, the IC50 is 15 nM in assay [3] and 6 nM in assay [4].

Consider `Cc1cccc(C(=O)N[C@H]2C[C@@H](n3cnc4c(Nc5cccc(Cl)c5)ncnc43)C2)n1`, for which the values for the inhibition in assay [1] and in assay [2] were less than 50% and 60%, respectively.

For the compound `Cc1cccc(C(=O)N[C@H]2C[C@@H](n3cnc4c(NCC5CCNCC5)ncnc43)C2)n1`, the half-maximal inhibitory concentration (IC50) in assay [3] stood at 48 nM; in assay [4] it was 71 nM.

Turning to `O=C(N[C@H]1C[C@@H](n2cnc3c(NCc4cccnc4)ncnc32)C1)c1c(F)cccc1F`, the inhibition in assay [1] was determined as 78%; in assay [2], 57%.

As for `Cc1cccc(C(=O)N[C@H]2C[C@@H](n3cnc4c(NC5CCN(C)CC5)ncnc43)C2)n1`, the IC50 in assay [4] was greater than 1000 nM.

Regarding `Cc1cccc(C(=O)N[C@H]2C[C@@H](n3cnc4c(NCc5ccc(OC(F)(F)F)cc5)ncnc43)C2)n1`, the inhibition in assay [1] is less than 50%; in assay [2], 54%.

Regarding `Cc1cccc(C(=O)N[C@H]2C[C@@H](n3cnc4c(NCc5cccc(C(F)(F)F)c5)ncnc43)C2)n1`, the inhibition in assay [1] is less than 50%; in assay [2] it was 72%.

For `Cc1ccc(C(=O)N[C@H]2C[C@@H](n3cnc4c(NCc5cccnc5)ncnc43)C2)cc1C`, the inhibition in assay [1] and in assay [2] was less than 50% throughout.

For `COc1cccc(Nc2ncnc3c2ncn3[C@H]2C[C@@H](NC(=O)c3cccc(C)n3)C2)c1`, the IC50 in assay [3] worked out at 18 nM; in assay [4] it was 67 nM.

In the case of `CN(C)c1cccc(C(=O)N[C@H]2C[C@@H](n3cnc4c(NCc5cccnc5)ncnc43)C2)c1`, the inhibition in assay [1] and in assay [2] was less than 50% each time.

For the compound `Cc1cccc(C(=O)N[C@H]2C[C@@H](n3cnc4c(NCc5ccc(Br)cc5)ncnc43)C2)n1`, the inhibition in assay [1] came to 64%; in assay [2] it was 80%.

As for `CN1CCCC1C(=O)N[C@H]1C[C@@H](n2cnc3c(NCc4cccnc4)ncnc32)C1` (stereo partly specified), the inhibition in assay [1] and in assay [2] was less than 50% in each case.

In the case of `COc1cc(Cl)ccc1C(=O)N[C@H]1C[C@@H](n2cnc3c(NCc4cccnc4)ncnc32)C1`, the inhibition in assay [1] and in assay [2] was less than 50% each time.

Consider `CC(=O)N[C@H]1CC[C@@H](Nc2ncnc3c2ncn3[C@H]2C[C@@H](NC(=O)c3cccc(C)n3)C2)CC1`, for which the 50% inhibitory concentration (IC50) in assay [3] was 112 nM; in assay [4], 27 nM.

With `O=C(N[C@H]1C[C@@H](n2cnc3c(NCc4cccnc4)ncnc32)C1)c1ccccc1`, the inhibition in assay [1] and in assay [2] was less than 50% each time.

For `CS(=O)(=O)N1CCC(C(=O)N[C@H]2C[C@@H](n3cnc4c(NCc5cccnc5)ncnc43)C2)CC1`, the inhibition is 62% in assay [1] and 48% in assay [2].

Take `Cc1cccc(C(=O)N[C@H]2C[C@@H](n3cnc4c(NCc5ccc(C(F)(F)F)cc5)ncnc43)C2)n1`: the inhibition in assay [1] was less than 50%; in assay [2], 58%.

On to `Cc1cccc(C(=O)N[C@H]2C[C@@H](n3cnc4c(NCc5ccc(F)cc5)ncnc43)C2)n1`, for which the IC50 in assay [3] worked out at 5.4 nM; in assay [4], 30 nM.

Regarding `O=C(N[C@H]1C[C@@H](n2cnc3c(NCc4cccnc4)ncnc32)C1)c1cccc(-c2ccccc2)n1`, the half-inhibitory concentration (IC50) in assay [3] is 38 nM; in assay [4], 31 nM.

With `Cc1cccc(C(=O)N[C@H]2C[C@@H](n3cnc4c(NCc5ccccc5Cl)ncnc43)C2)n1`, the inhibition was less than 50% in assay [1] and 59% in assay [2].

For the compound `Cc1cccc(C(=O)N[C@H]2C[C@@H](n3cnc4c(NC5CCN(C(=O)OC(C)(C)C)C5)ncnc43)C2)n1` (stereo partly specified), the IC50 in assay [4] was greater than 500 nM.

For `Cc1cccc(C(=O)N[C@H]2C[C@@H](n3cnc4c(NCC5CCCCC5)ncnc43)C2)n1`, the half-maximal inhibitory concentration (IC50) in assay [3] is 49 nM; in assay [4], 25 nM.

With `O=C(N[C@H]1C[C@@H](n2cnc3c(NCc4cccnc4)ncnc32)C1)c1cccc(Cl)c1Cl`, the inhibition in assay [1] and in assay [2] was less than 50% throughout.
